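Cultured in 96-well plates, cells were exposed to test compound for 48 hours across five concentrations. TGI: concentration producing complete growth inhibition.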
Columns and labels:
Test in all cases: NCI-60 cell line screen, 48 h
OVCAR-8 ovarian = tested on: OVCAR-8 ovarian
SK-MEL-2 melanoma = tested on: SK-MEL-2 melanoma
SNB-75 CNS = tested on: SNB-75 CNS
K-562 leukemia = tested on: K-562 leukemia
UACC-62 melanoma = tested on: UACC-62 melanoma
SN12C renal = tested on: SN12C renal
OVCAR-3 ovarian = tested on: OVCAR-3 ovarian
NCI-H226 lung = tested on: NCI-H226 lung
MALME-3M melanoma = tested on: MALME-3M melanoma
HL-60(TB) leukemia = tested on: HL-60(TB) leukemia
ACHN renal = tested on: ACHN renal
MDA-MB-231 breast = tested on: MDA-MB-231 breast
HCT-15 colon = tested on: HCT-15 colon
NCI-H23 lung = tested on: NCI-H23 lung
NCI/ADR-RES ovarian = tested on: NCI/ADR-RES ovarian
RXF 393 renal = tested on: RXF 393 renal
HS 578T breast = tested on: HS 578T breast
M14 melanoma = tested on: M14 melanoma
UO-31 renal = tested on: UO-31 renal
A498 renal = tested on: A498 renal

| SMILES | TGI (OVCAR-8 ovarian) [µM] | TGI (SK-MEL-2 melanoma) [µM] | TGI (SNB-75 CNS) [µM] | TGI (K-562 leukemia) [µM] | TGI (UACC-62 melanoma) [µM] | TGI (SN12C renal) [µM] | TGI (OVCAR-3 ovarian) [µM] | TGI (NCI-H226 lung) [µM] | TGI (MALME-3M melanoma) [µM] | TGI (HL-60(TB) leukemia) [µM] | TGI (ACHN renal) [µM] | TGI (MDA-MB-231 breast) [µM] | TGI (HCT-15 colon) [µM] | TGI (NCI-H23 lung) [µM] | TGI (NCI/ADR-RES ovarian) [µM] | TGI (RXF 393 renal) [µM] | TGI (HS 578T breast) [µM] | TGI (M14 melanoma) [µM] | TGI (UO-31 renal) [µM] | TGI (A498 renal) [µM] |
| --- | --- | --- | --- | --- | --- | --- | --- | --- | --- | --- | --- | --- | --- | --- | --- | --- | --- | --- | --- | --- |
| Cc1nn(C(=O)c2ccc(Cl)cc2)c2c1C(c1cccc([N+](=O)[O-])c1)SC(N)=N2 (stereo not drawn) | > 10 | > 10 | > 10 | > 10 | > 10 | > 10 | > 10 | > 10 | > 10 | > 10 | > 10 | > 10 | 7.51 | > 10 | > 10 | > 10 | > 10 | > 10 |  |  |
| COc1ccc(N=C2C(=Nc3ccc(OC)cc3)N(S(=O)(=O)c3ccccc3)C(=S)N2c2ccccc2)cc1 | > 100 | > 100 | > 100 | > 100 | > 100 | > 100 | > 100 | > 100 | > 100 |  | > 100 | > 100 | > 100 | > 100 | > 100 | > 100 | > 100 | > 100 | > 100 |  |
| CCOC(=O)C(C)(C(=O)OCC)/C(Cl)=C\Cl | > 100 |  | > 100 | > 100 | > 100 | > 100 | > 100 | > 100 | > 100 | > 100 | > 100 | > 100 |  | > 100 | > 100 | > 100 | > 100 | > 100 | > 100 |  |
| CC(=O)OC(C)c1cc2c(s1)C(=O)c1scc(C(C)OC(C)=O)c1C2=O (stereo not drawn) | 0.546 |  | 0.332 | > 100 | 0.418 |  |  | 4.04 | 0.288 | > 100 | 0.628 |  | 0.381 | 0.398 | 0.802 | 1.31 | 1.41 | 0.238 | 0.451 | 1.26 |
| Cc1cnc(-c2c[nH]c3ccccc23)nc1-c1c[nH]c2ccccc12 | 22.7 | 20.6 | 9.64 | 26 | 17.4 | 8.53 | 21.7 |  |  | 25.1 | 10 | 7.78 | 27 |  | > 100 |  | > 100 | 16.4 | 20.8 | 7.03 |
| CCN(CC)CCCNc1nc(=O)[nH]c(C)c1C(=O)Nc1c2ccccc2nc2ccccc12 | 59.1 | > 100 | 55.5 | > 100 | 36.4 | > 100 | 51.6 | 93.8 | 45.1 | 60.9 | 57.4 | 51.3 | 72.8 | 42.8 | 45.7 | 97 |  | > 100 | 32.3 | 31.8 |
| Cc1nc2ccccc2c(=O)n1NC(=O)c1ccc([N+](=O)[O-])cc1 | > 100 |  | > 100 | > 100 | > 100 | > 100 | > 100 | > 100 | > 100 | > 100 | > 100 | > 100 |  | > 100 |  | > 100 | > 100 | > 100 | > 100 | > 100 |
| COCc1cc2c(cc1/C(=C/[N+](=O)[O-])CS(=O)(=O)c1ccccc1)OCO2 | > 100 |  | > 100 | > 100 | > 100 | > 100 | > 100 | > 100 |  | > 100 | > 100 |  | > 100 | > 100 | > 100 | > 100 | > 100 | > 100 | > 100 | > 100 |
| CN(Cc1cnc2nc(N)nc(N)c2n1)c1ccc(C(=O)NCS(=O)(=O)O)cc1 | > 100 | > 100 | > 100 | > 100 | > 100 | > 100 | > 100 | > 100 | > 100 |  | > 100 | > 100 | > 100 | > 100 | > 100 |  | > 100 | > 100 | > 100 | > 100 |
| O=C(CCCN1CCC2(CC1)NC(=O)c1ccccc1O2)c1ccc(F)cc1 | > 100 | > 100 | > 100 | > 100 | > 100 | > 100 | > 100 | > 100 | > 100 | > 100 | > 100 | > 100 | > 100 | > 100 | > 100 | > 100 | > 100 | > 100 | > 100 |  |
| CCOP(=O)(OCC)C(N)Cc1ccc(OC)c(OC)c1 (stereo not drawn) | > 100 | > 100 | > 100 | > 100 | > 100 | > 100 | > 100 | > 100 | > 100 | > 100 | > 100 | > 100 | > 100 | > 100 | > 100 | > 100 |  | > 100 | > 100 | > 100 |
| CCSC1(SCC)CC(Cc2ccc(OC)cc2)N(C=NC(C)(C)C)C1 (stereo not drawn) | > 100 | > 100 | > 100 | 53.8 | 67 | 84.4 | > 100 | > 100 | 37.5 | 26.6 | > 100 |  | > 100 | 43.3 |  | 40.9 |  | 32.2 | 87.5 | > 100 |
| CCOC(=O)N(c1ccccc1)c1cc(=O)n2ccccc2n1 | > 100 |  | > 100 | > 100 | > 100 | > 100 | > 100 | > 100 | > 100 | > 100 | > 100 | > 100 | > 100 | > 100 | > 100 | > 100 |  |  | > 100 | > 100 |
